Measurements from patent US20230159510A1, “NOVEL PRMT5 INHIBITORS” (AMGEN INC., priority 2020, published 2023).

Experiments:
HCT116 MTAP null cells = assay: HCT116 proliferation assay, MTAP null cells (CellTiter-Glo, 6 days); assay type: cell-based; settings: HCT116-MTAP null, 144 h, read-out: Protif_ HCT116-MTAP null IC50
In short: (§1)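 Cells grown in RPMI 1640 + 10% FBS, plated overnight, then exposed for 6 days to 8- or 9-point 1:3 compound dilutions (top 1 or 10 µM) with DMSO control. Viability read by CellTiter-Glo luminescence.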

HCT116 WT cells = assay: HCT116 proliferation assay, WT cells (CellTiter-Glo, 6 days); assay type: cell-based; settings: Homo sapiens, HCT-116, 144 h, read-out: Prolif_HCT116-WT IC50
In short: as §1

PRMT5/MEP50 = PRMT5/MEP50 (Homo sapiens, UniProt O14744); assay: MTase-Glo methyl transferase assay, Method A (Histone H4 peptide, 1 µM MTA, 24 h pre-incubation); assay type: biochemical; design: made in house; settings: read-out: PRMT5 MTase Glo Ki (nM, Meth. A)
Protocol: Method A: The PRMT5 inhibitory activity of test compounds was determined using the MTase-Glo™ assay (Promega), which monitors the product (S-adenosyl homocysteine or SAH) of methyltransferase reactions. The PRMT5 MTase-Glo assay was conducted in a 384-well white ProxiPlate (PerkinElmer) in a total volume of 12 µL. The PRMT5 enzymatic reaction (in 4 µL) contained 10 nM PRMT5/MEP50 (produced at Amgen), 5 µM S-adenosyl methionine (SAM, Promega), 1 µM Histone H4 (1-21)-Lys(Biotin) (Anaspec), 1 µM 5′-methylthioadenosine (MTA, Sigma) and two-fold serially diluted compounds in a reaction buffer of 50 mM Tris (pH 8.0), 50 mM NaCl, 0.01% Tween 20, 0.01% BSA, and 1 mM DTT. Test compounds were pre-incubated with PRMT5/MEP50, SAM, and MTA for 24 hours before addition of Histone H4 peptide to initiate the PRMT5 reaction. The reaction was allowed to proceed for 2 hours at room temperature and was then terminated by addition of 2 µL of 3X MTase-Glo™ Reagent (Promega) and 150 µM EPZ015666 (Sigma). After a 30-minute incubation at room temperature, 6 µL of MTase-Glo™ Detection Solution (Promega) was added and the plate was incubated at room temperature for an additional 30 minutes. The light signal corresponding to the amount of SAH produced by the PRMT5 reaction was subsequently measured using an Envision multimode reader (PerkinElmer). IC50 and KI values were obtained by analyzing dose-response curves using Genedata Screener (Genedata).

Sequence of PRMT5/MEP50 (O14744 whole entry): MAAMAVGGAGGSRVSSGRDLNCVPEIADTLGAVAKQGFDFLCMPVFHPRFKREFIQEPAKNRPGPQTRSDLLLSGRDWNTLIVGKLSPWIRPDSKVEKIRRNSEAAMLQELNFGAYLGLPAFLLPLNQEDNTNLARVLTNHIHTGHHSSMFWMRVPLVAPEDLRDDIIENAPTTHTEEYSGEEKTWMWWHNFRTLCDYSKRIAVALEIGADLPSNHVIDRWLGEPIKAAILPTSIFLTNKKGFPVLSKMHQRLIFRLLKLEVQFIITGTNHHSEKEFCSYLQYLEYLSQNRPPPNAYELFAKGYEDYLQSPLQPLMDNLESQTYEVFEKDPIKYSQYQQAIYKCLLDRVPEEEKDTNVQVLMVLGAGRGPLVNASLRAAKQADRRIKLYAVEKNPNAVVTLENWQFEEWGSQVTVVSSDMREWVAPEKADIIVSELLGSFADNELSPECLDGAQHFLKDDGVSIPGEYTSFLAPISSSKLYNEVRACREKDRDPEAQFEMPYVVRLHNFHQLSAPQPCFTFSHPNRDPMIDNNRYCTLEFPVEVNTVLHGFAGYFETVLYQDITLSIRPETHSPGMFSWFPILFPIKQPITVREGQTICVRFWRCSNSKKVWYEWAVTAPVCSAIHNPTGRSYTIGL
Sequence of PRMT5/MEP50 (Q9BQA1 whole entry partner): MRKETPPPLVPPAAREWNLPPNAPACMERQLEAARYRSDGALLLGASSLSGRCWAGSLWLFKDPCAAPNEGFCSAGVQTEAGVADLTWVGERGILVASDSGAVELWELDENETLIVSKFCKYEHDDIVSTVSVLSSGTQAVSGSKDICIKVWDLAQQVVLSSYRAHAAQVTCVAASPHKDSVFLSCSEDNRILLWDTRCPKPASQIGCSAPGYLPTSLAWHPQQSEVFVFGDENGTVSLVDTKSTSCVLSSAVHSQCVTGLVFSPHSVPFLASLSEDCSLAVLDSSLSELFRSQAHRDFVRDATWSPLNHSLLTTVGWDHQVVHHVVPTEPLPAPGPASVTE

IC50 (HCT116 MTAP null cells) [nM] | IC50 (HCT116 WT cells) [nM] | Ki (PRMT5/MEP50) [nM] | Structure (SMILES)
61 | 1270 | 0.1 | Cc1cc2cc(C(=O)N(Cc3ccc(OC(F)F)cn3)[C@H](C)c3ncccn3)ccc2nc1N (single isomer, unassigned) [Example 491]
175 | 3390 | 0.22 | Cc1cc2cc(C(=O)N(Cc3ncc(C(F)(F)F)s3)[C@H](C)c3ncccn3)ccc2nc1N (single isomer, unassigned) [Example 492]
146 | 4080 | 0.26 | [2H]C([2H])([2H])Oc1ccc(CN(C(=O)c2ccc3nc(N)c(C)cc3c2)[C@H](C)c2ncccn2)nc1 (single isomer, unassigned) [Example 493]
194 | 5420 | 0.66 | CC[C@H](c1ncccn1)N(Cc1ccc(C#N)cn1)C(=O)c1ccc2nc(N)c(C)cc2c1 (single isomer, unassigned) [Example 494]
86 | 3170 | 0.06 | CC[C@H](c1ncccn1)N(Cc1ccc(C(F)(F)F)nn1)C(=O)c1ccc2nc(N)c(C)cc2c1 (single isomer, unassigned) [Example 495]
23 | 462 | 0.17 | Cc1cc2cc(C(=O)N(Cc3ccc(C(F)(F)F)cn3)[C@H](C)c3ncn(C)n3)ccc2nc1N (single isomer, unassigned) [Example 496]
35 | 462 | 0.19 | Cc1cc2cc(C(=O)N(Cc3ccc(C(F)(F)F)cn3)[C@H](C)c3ncn(C)n3)c(F)cc2nc1N (single isomer, unassigned) [Example 497]
459 | 2030 | 2.43 | Cc1cc2cc(C(=O)N(Cc3ccc(C(F)(F)F)cn3)[C@@H](C)c3ncn(C)n3)c(F)cc2nc1N (single isomer, unassigned) [Example 498]
251 | > 10000 | 0.18 | CC[C@H](c1ncccn1)N(Cc1ccc(C(F)(F)F)cn1)C(=O)c1cc2cc(Br)c(N)nc2cn1 (single isomer, unassigned) [Example 499]
187 | 4590 | 0.52 | CC[C@H](c1ncccn1)N(Cc1ccc(C(F)F)cn1)C(=O)c1cnc2nc(N)c(Br)cc2c1 (single isomer, unassigned) [Example 500]
107 | 5920 | 0.02 | CC[C@H](c1ncccn1)N(Cc1ccc(C(F)F)cn1)C(=O)c1ccc2nc(N)c(Br)cc2c1 (single isomer, unassigned) [Example 501]
155 | 3640 | 0.14 | CC[C@H](c1ncccn1)N(Cc1cnc(C(F)(F)F)cn1)C(=O)c1ccc2nc(N)c(C)cc2c1 (single isomer, unassigned) [Example 516]
47 | 851 | 0.11 | Cc1cc2cc(C(=O)N(Cc3ccc(C(F)(F)F)nn3)[C@@H](c3ncccn3)C3CC3)ccc2nc1N (single isomer, unassigned) [Example 518]
62 | 1700 | 0.13 | Cc1cc2cc(C(=O)N(Cc3ccc(C#N)cn3)[C@@H]3CCOc4cccnc43)ccc2nc1N (single isomer, unassigned) [Example 519]
24 | 737 | 0.04 | Cc1cc2cc(C(=O)N(Cc3ccc(C(F)(F)F)nn3)[C@@H]3CCOc4cccnc43)ccc2nc1N (single isomer, unassigned) [Example 520]
12 | 78 | 0.01 | Cc1cc2cc(C(=O)N(Cc3ccc(C(F)(F)F)cn3)[C@@H]3CCCc4nccnc43)ccc2nc1N (single isomer, unassigned) [Example 521]

IC50 (HCT116 MTAP null cells) [nM] | IC50 (HCT116 WT cells) [nM] | Ki (PRMT5/MEP50) [nM] | Structure (SMILES)
868 | 5570 | 49.9 | Cc1cc2cc(C(=O)N(Cc3ccc(C(F)(F)F)cn3)[C@H]3CCCc4nccnc43)ccc2nc1N (single isomer, unassigned) [Example 522, 2-amino-3-methyl-N-((5 S)-5,6,7,8-tetrahydro-5-quinoxalinyl)-N-((5-(trifluoromethyl)-2-pyridinyl)methyl)-6-quinolinecarboxamide]
334 | 6380 | 0.35 | Cc1cc2cc(C(=O)N(Cc3ccc(C#N)cn3)[C@@H]3CCCn4ncnc43)ccc2nc1N (single isomer, unassigned) [Example 523]
598 | 7610 | 0.23 | Cc1cc2cc(C(=O)N(Cc3ccc(C(F)(F)F)nn3)[C@H](C)c3ncccc3Cl)ccc2nc1N (single isomer, unassigned) [Example 525]
323 | > 10000 | 0.33 | Cc1cc2cc(C(=O)N(Cc3cccc(C(F)(F)F)n3)[C@H](C)c3ncccn3)ccc2nc1N (single isomer, unassigned) [Example 526]
10 | 142 | 0.05 | Cc1cc2cc(C(=O)N(Cc3ccc(C(F)(F)F)cn3)[C@@H]3CCCc4cn[nH]c43)ccc2nc1N (single isomer, unassigned) [Example 527]
58 | 899 | 0.14 | Cc1cc2cc(C(=O)N(Cc3ccc(C(F)(F)F)cn3)[C@H](C)c3ncc(F)cn3)ccc2nc1N (single isomer, unassigned) [Example 528]
258 | 4240 | 1.69 | COC[C@@H](c1ccccn1)N(Cc1ccc(C(F)(F)F)cn1)C(=O)c1ccc2nc(N)c(C)cc2c1 (single isomer, unassigned) [Example 529]
108 | 1710 | 0.18 | COC[C@H](c1ccccn1)N(Cc1ccc(C(F)(F)F)cn1)C(=O)c1ccc2nc(N)c(C)cc2c1 (single isomer, unassigned) [Example 530]
78 | 2830 | 0.1 | Cc1cc2cc(C(=O)N(Cc3ccc(C#N)cn3)[C@H](C)c3ncn(C)n3)ccc2nc1N (single isomer, unassigned) [Example 531]
45 | 894 | 0.02 | Cc1cc2cc(C(=O)N(Cc3ccc(C(F)F)cn3)[C@H](C)c3cnn(C)n3)ccc2nc1N (single isomer, unassigned) [Example 532]
19 | 755 | 0.02 | Cc1cc2cc(C(=O)N(Cc3ccc(C(F)(F)F)nn3)[C@H](C)c3cscn3)ccc2nc1N (single isomer, unassigned) [Example 533]
154 | 4020 | 0.33 | Cc1nc([C@@H](C)N(Cc2ccc(C(F)F)cn2)C(=O)c2ccc3nc(N)c(C)cc3c2)no1 (single isomer, unassigned) [Example 534]
552 | > 10000 | 0.34 | C[C@H](c1ncn(C)n1)N(Cc1ccc(C(F)F)cn1)C(=O)c1cnc2nc(N)c(Br)cc2c1 (single isomer, unassigned) [Example 535]
44 | 1460 | 0.02 | Cc1cc2cc(C(=O)N(Cc3ccc(Br)nn3)[C@H](C)c3ncn(C)n3)ccc2nc1N (single isomer, unassigned) [Example 536]
21 | 723 | 0.08 | C[C@H](c1ncccn1)N(Cc1ccc(C(F)(F)F)cn1)C(=O)c1ccc2nc(N)c(I)cc2c1 (single isomer, unassigned) [Example 544]
